Where a name gives a salt, the structure may show the parent alone.
System: patients with schizophrenia in the acute exacerbation phase
Test: First stage phase II clinical trial: safety (adverse events, serious adverse events, side effects, ECG, laboratory tests)
Assay type: in vivo, human
Experimental: According to the procedures as shown in Table 1 as described below, the placebo-controlled double blind experiment was done on 149 patients with schizophrenia in the acute exacerbation phase at 15 facilities in USA. The efficacy and safeness were studied when SM-13496 at a dose of 40 mg or 120 mg, or a placebo was orally administered once a day for 6 weeks after placebo washout.

[1] = 120 mg orally once a day for 6 weeks, 49 subjects

O=C1[C@@H]2[C@@H]3CC[C@@H](C3)[C@@H]2C(=O)N1C[C@@H]1CCCC[C@H]1CN1CCN(c2nsc3ccccc23)CC1 [SM-13496, (1R,2S,3R,4S)-N-[(1R,2R)-2-[4-(1,2-benzoisothiazol-3-yl)-1-piperazinyl-methyl]-1-cyclohexylmethyl]-2,3-bicyclo[2.2.1]heptanedicarboximide hydrochloride]
Number of subjects showing serious adverse events (%) [1]: 3 (6) number of subjects (%)
Number of subjects who drop out from the trial due to adverse events (%) [1]: 6 (12) number of subjects (%)
Occurrence of adverse event: Akathisia (120 mg, 6 weeks, 49 subjects): 7 (14) number of subjects (%)
Occurrence of adverse event: Digestive disturbance (120 mg, 6 weeks, 49 subjects): 2 (4) number of subjects (%)
Occurrence of adverse event: Drowsiness (120 mg, 6 weeks, 49 subjects): 5 (10) number of subjects (%)
Occurrence of adverse event: Exacerbation of schizophrenia (120 mg, 6 weeks, 49 subjects): 1 (2) number of subjects (%)
Occurrence of adverse event: Free-floating vertigo (excluding rotatory vertigo) (120 mg, 6 weeks, 49 subjects): 5 (10) number of subjects (%)
Occurrence of adverse event: Headache (120 mg, 6 weeks, 49 subjects): 3 (6) number of subjects (%)
Occurrence of adverse event: Nausea (120 mg, 6 weeks, 49 subjects): 11 (22) number of subjects (%)
Occurrence of adverse event: Suppression (120 mg, 6 weeks, 49 subjects): 7 (14) number of subjects (%)
Occurrence of serious adverse event: Exacerbation of paranoia (120 mg, 6 weeks, 49 subjects): 0 (0) number of subjects (%)
Occurrence of serious adverse event: Exacerbation of schizophrenia (120 mg, 6 weeks, 49 subjects): 1 (2) number of subjects (%)
Occurrence of serious adverse event: Paranoid schizophrenia (120 mg, 6 weeks, 49 subjects): 1 (2) number of subjects (%)
Occurrence of serious adverse event: Psychosis aggravated (120 mg, 6 weeks, 49 subjects): 0 (0) number of subjects (%)
Occurrence of side effects (%) (120 mg, 6 weeks, 49 subjects): 35 (71) number of subjects (%)
Serious adverse events: Total (%) (120 mg, 6 weeks, 49 subjects): 2 (4) number of subjects (%)
Side effect: Abdominal pain (Gastroenteric disturbance) (120 mg, 6 weeks, 49 subjects): 0 (0) number of subjects (%)
Side effect: Abnormal electrocardiogram (Laboratory assay) (120 mg, 6 weeks, 49 subjects): 0 (0) number of subjects (%)
Side effect: Abnormal liver function tests (Laboratory assay) (120 mg, 6 weeks, 49 subjects): 1 (2) number of subjects (%)
Side effect: Agitation (Mental disturbance) (120 mg, 6 weeks, 49 subjects): 1 (2) number of subjects (%)
Side effect: Agitation aggravated (Mental disturbance) (120 mg, 6 weeks, 49 subjects): 2 (4) number of subjects (%)
Side effect: Akathisia (Nervous system disorder) (120 mg, 6 weeks, 49 subjects): 7 (14) number of subjects (%)
Side effect: Akathisia aggravated (Nervous system disorder) (120 mg, 6 weeks, 49 subjects): 0 (0) number of subjects (%)
Side effect: Anarthria (Nervous system disorder) (120 mg, 6 weeks, 49 subjects): 1 (2) number of subjects (%)
Side effect: Anorexia (Metabolic disturbances and nutritional disturbance) (120 mg, 6 weeks, 49 subjects): 0 (0) number of subjects (%)
Side effect: Anxiety aggravated (Mental disturbance) (120 mg, 6 weeks, 49 subjects): 0 (0) number of subjects (%)
Side effect: Articular rigidity (Musculoskeletal system and connective tissue disorder) (120 mg, 6 weeks, 49 subjects): 0 (0) number of subjects (%)
Side effect: Blurred vision (Ocular disturbance) (120 mg, 6 weeks, 49 subjects): 1 (2) number of subjects (%)
Side effect: Breathing difficulty (Disturbance in respiratory organ, chest and mediastinum) (120 mg, 6 weeks, 49 subjects): 1 (2) number of subjects (%)
Side effect: Cervical rigidity (Musculoskeletal system and connective tissue disorder) (120 mg, 6 weeks, 49 subjects): 0 (0) number of subjects (%)
Side effect: Cogwheel rigidity (Nervous system disorder) (120 mg, 6 weeks, 49 subjects): 1 (2) number of subjects (%)
Side effect: Constipation (Gastroenteric disturbance) (120 mg, 6 weeks, 49 subjects): 0 (0) number of subjects (%)
Side effect: Decrease in appetite (Metabolic disturbances and nutritional disturbance) (120 mg, 6 weeks, 49 subjects): 1 (2) number of subjects (%)
Side effect: Diarrhea (Gastroenteric disturbance) (120 mg, 6 weeks, 49 subjects): 0 (0) number of subjects (%)
Side effect: Drowsiness (Nervous system disorder) (120 mg, 6 weeks, 49 subjects): 5 (10) number of subjects (%)
Side effect: Dry eye (Ocular disturbance) (120 mg, 6 weeks, 49 subjects): 0 (0) number of subjects (%)
Side effect: Dry mouth (Gastroenteric disturbance) (120 mg, 6 weeks, 49 subjects): 0 (0) number of subjects (%)
Side effect: Dyspepsia (Gastroenteric disturbance) (120 mg, 6 weeks, 49 subjects): 2 (4) number of subjects (%)
Side effect: Dystonic reaction (Nervous system disorder) (120 mg, 6 weeks, 49 subjects): 0 (0) number of subjects (%)
Side effect: Exacerbation of insomnia (Mental disturbance) (120 mg, 6 weeks, 49 subjects): 1 (2) number of subjects (%)
Side effect: External otitis (Infection and parasitosis) (120 mg, 6 weeks, 49 subjects): 0 (0) number of subjects (%)
Side effect: Extrapyramidal disease (Nervous system disorder) (120 mg, 6 weeks, 49 subjects): 3 (6) number of subjects (%)
Side effect: Fatigue (Total disability and local condition) (120 mg, 6 weeks, 49 subjects): 1 (2) number of subjects (%)
Side effect: Fatigue aggravated (Total disability and local condition) (120 mg, 6 weeks, 49 subjects): 0 (0) number of subjects (%)
Side effect: Flatulence (Gastroenteric disturbance) (120 mg, 6 weeks, 49 subjects): 0 (0) number of subjects (%)
Side effect: Flushing (Vascular diseases) (120 mg, 6 weeks, 49 subjects): 0 (0) number of subjects (%)
Side effect: Free-floating vertigo (excluding rotatory vertigo) (Nervous system disorder) (120 mg, 6 weeks, 49 subjects): 5 (10) number of subjects (%)
Side effect: Frequent urination (Renal Injury and urinary disorder) (120 mg, 6 weeks, 49 subjects): 0 (0) number of subjects (%)
Side effect: Glossoplegia (Nervous system disorder) (120 mg, 6 weeks, 49 subjects): 0 (0) number of subjects (%)
Side effect: Headache (Nervous system disorder) (120 mg, 6 weeks, 49 subjects): 1 (2) number of subjects (%)
Side effect: Heavy feeling (Musculoskeletal system and connective tissue disorder) (120 mg, 6 weeks, 49 subjects): 0 (0) number of subjects (%)
Side effect: Hot flashes (Vascular diseases) (120 mg, 6 weeks, 49 subjects): 1 (2) number of subjects (%)
Side effect: Hot sensation (Total disability and local condition) (120 mg, 6 weeks, 49 subjects): 0 (0) number of subjects (%)
Side effect: Increase in creatine phosphokinase level in the blood (Laboratory assay) (120 mg, 6 weeks, 49 subjects): 0 (0) number of subjects (%)
Side effect: Increase in prolactin level in the blood (Laboratory assay) (120 mg, 6 weeks, 49 subjects): 1(2) number of subjects (%)
Side effect: Increase in total protein (Laboratory assay) (120 mg, 6 weeks, 49 subjects): 0 (0) number of subjects (%)
Side effect: Insomnia (Mental disturbance) (120 mg, 6 weeks, 49 subjects): 1 (2) number of subjects (%)
Side effect: Laryngopharynx pain (Disturbance in respiratory organ, chest and mediastinum) (120 mg, 6 weeks, 49 subjects): 0 (0) number of subjects (%)
Side effect: Loose stools (Gastroenteric disturbance) (120 mg, 6 weeks, 49 subjects): 1 (2) number of subjects (%)
Side effect: Melalgia (Musculoskeletal system and connective tissue disorder) (120 mg, 6 weeks, 49 subjects): 1 (2) number of subjects (%)
Side effect: Muscle stiffness (Musculoskeletal system and connective tissue disorder) (120 mg, 6 weeks, 49 subjects): 1 (2) number of subjects (%)
Side effect: Myalgic pain (Musculoskeletal system and connective tissue disorder) (120 mg, 6 weeks, 49 subjects): 1 (2) number of subjects (%)
Side effect: Nausea (Gastroenteric disturbance) (120 mg, 6 weeks, 49 subjects): 9 (18) number of subjects (%)
Side effect: Nightmare (Mental disturbance) (120 mg, 6 weeks, 49 subjects): 1 (2) number of subjects (%)
Side effect: Palpitation (Heart problems) (120 mg, 6 weeks, 49 subjects): 1 (2) number of subjects (%)
Side effect: Parotiditis (Infection and parasitosis) (120 mg, 6 weeks, 49 subjects): 0 (0) number of subjects (%)
Side effect: Polyuria (Renal Injury and urinary disorder) (120 mg, 6 weeks, 49 subjects): 0 (0) number of subjects (%)
Side effect: Pruritus (Disturbance in Skin and Hypodermis) (120 mg, 6 weeks, 49 subjects): 0 (0) number of subjects (%)
Side effect: Psychosis aggravated (Mental disturbance) (120 mg, 6 weeks, 49 subjects): 2 (4) number of subjects (%)
Side effect: Restlessness (Mental disturbance) (120 mg, 6 weeks, 49 subjects): 1 (2) number of subjects (%)
Side effect: Salivary hypersecretion (Gastroenteric disturbance) (120 mg, 6 weeks, 49 subjects): 0 (0) number of subjects (%)
Side effect: Sinus tachycardia (Heart problems) (120 mg, 6 weeks, 49 subjects): 1 (2) number of subjects (%)
Side effect: Sleepiness (Total disability and local condition) (120 mg, 6 weeks, 49 subjects): 2 (4) number of subjects (%)
Side effect: Suppression (Nervous system disorder) (120 mg, 6 weeks, 49 subjects): 7 (14) number of subjects (%)
Side effect: Tinea pedis (Infection and parasitosis) (120 mg, 6 weeks, 49 subjects): 1 (2) number of subjects (%)
Side effect: Tongue disturbance (Gastroenteric disturbance) (120 mg, 6 weeks, 49 subjects): 0 (0) number of subjects (%)
Side effect: Tremor (Nervous system disorder) (120 mg, 6 weeks, 49 subjects): 3 (6) number of subjects (%)
Side effect: Trismus (Nervous system disorder) (120 mg, 6 weeks, 49 subjects): 1 (2) number of subjects (%)
Side effect: Urinary tract infection (Infection and parasitosis) (120 mg, 6 weeks, 49 subjects): 0 (0) number of subjects (%)
Side effect: Vomiting (Gastroenteric disturbance) (120 mg, 6 weeks, 49 subjects): 3 (6) number of subjects (%)
Side effect: Weight loss (Laboratory assay) (120 mg, 6 weeks, 49 subjects): 2 (4) number of subjects (%)
Akathisia (adverse event) (120 mg-treated group): 14%
Digestive disturbance compared to the placebo-treated group (120 mg-treated group): less observed
Exacerbation of schizophrenia (adverse event) (120 mg-treated group): 2%
Nausea compared to the other groups (120 mg-treated group): more observed
Ratio of the subjects showing suppression (120 mg-treated group): 14%
Serious adverse events (120 mg-treated group): 2 cases
Change in body temperature, respiration rate, funduscopic examination and slit-lamp microscopy (SM-13496-treated groups): no clinically significant change
Occurrence of dystonic reaction (SM-13496-treated groups): less than 4%
Prolactin level in the blood (SM-13496-treated groups): moderate increase
Number of subjects who dropped out from the trial due to the adverse events compared to placebo (both groups treated by two doses): higher
Occurrence of the adverse events compared to placebo (groups treated by SM-13496): the same as that in the placebo-treated group

Reference: patent US20180051017A1, “AGENT FOR TREATMENT OF SCHIZOPHRENIA” (Sumitomo Dainippon Pharma Co., Ltd., priority 2002, published 2018)
